Assay results published in patent publication US20250257064A1, “TRIFLUOROMETHYL-SUBSTITUTED SULFONAMIDE AS BCL-2-SELECTIVE INHIBITOR” (Chia Tai Tianqing Pharmaceutical Group Co., Ltd., priority 2018, published 2025).

Legend:
RS4;11 cells = experiment: Inhibitory effect on proliferation of RS4;11 cells (CCK-8); format: cell-based, human; settings: Homo sapiens, RS4-11, 72 h
Procedure: Experimental Example 2: Inhibitory Effect of Compounds on Proliferation of RS4;11 Cells
RS4;11 cells (from Nanjing Cobioer) in logarithmic growth phase and good cell condition were added to a centrifuge tube and centrifuged at 1500 rpm for 3 min in a low speed centrifuge. The supernatant was discarded, and 5 mL of complete medium (RPMI basic medium+10 wt % fetal bovine serum (FBS)) was added using a pipette for cell resuspension. The cells were counted using a cell counter, diluted with complete medium to a cell density of 2×10^5 cells/mL, and added with an equivalent amount of RPMI basic medium to adjust the serum concentration to 5% and the cell density to 1×10^5 cells/mL for plate seeding. The cells were seeded on a 96-well plate at 100 μL/well using a pipettor, and incubated in an incubator at 37° C., 5% CO2 with saturated humidity. After 24 h of incubation, compounds were loaded using a nanoliter pipettor, 2 duplicate wells were set for each concentration, and cells without compound were used as negative controls. […] Inhibition rate (%)=(mean value of negative control group—mean value of experimental group)/(mean value of negative control group—mean value of blank group)×100%. A dose-response curve was fitted by four-parameter analysis, with the logarithm of compound concentration serving as abscissa and inhibition rate serving as ordinate, so that IC50 was calculated (FIG. 2).

BCL-2/BAK = molecular target: T1, BCL-2/BAK (Homo sapiens, UniProt P10415); experiment: Screening on inhibitory activity for BCL-2/BAK binding (Cisbio HTRF kit)
T1 construct: purchased Cisbio
Procedure: 1.1 Screening on Inhibitory Activity for BCL-2/BAK Binding
500 nM Tag1-BCL-2 protein stock solution and 20 μM Tag2-BAK protein stock solution were diluted to 5 nM and 120 nM respectively with dilution buffer in kit (model: BCL-2/BAK (BH3) BINDING ASSAY KITS, from Cisbio). 5 μL of Tag1-BCL-2 protein diluent was added to each well, then different compounds dissolved with DMSO were added to the wells with a nanoliter pipettor, allowing the final compound concentrations to be 200 nM to 0.0488 nM (4-fold gradient for 7 concentrations in total). Blank control wells (without enzyme) and negative control wells (with enzyme, plus vehicle DMSO) were set, and 2 replicate wells were set. Finally, 5 μL of Tag2-BAK protein diluent was added to each well, and the mixture was mixed well by centrifugation and incubated at 25° C. for 15 min. 100× anti-Tag1-Eu^3+ and 100× anti-Tag2-XL665 were both diluted to 1× working concentration with the detection buffer in the kit. Anti-Tag1-Eu^3+ and anti-Tag2-XL665 were mixed well in a 1:1 ratio, and the mixture was added to wells at 5 μL/well, and incubated at 25° C. for 2 h or more. The plate was read using a PE Envision multi-functional microplate reader (excitation: […], emission: 665 nm) and IC50 (shown in table 1) was calculated by four-parameter fitting.

BCL-XL/BAK = molecular target: T2, BCL-XL/BAK (Homo sapiens, UniProt Q07817); experiment: Screening on inhibitory activity for BCL-XL/BAK binding (Cisbio HTRF kit)
T2 construct: purchased Cisbio
Procedure: 1.2 Screening on Inhibitory Activity for BCL-XL/BAK Binding
300 nM Tag1-BCL-XL protein stock solution and 10 μM Tag2-BAK protein stock solution were diluted to 2 nM and 80 nM respectively with dilution buffer in kit (model: BCL-XL/BAK (BH3) BINDING ASSAY KITS, from Cisbio). 5 μL of Tag1-BCL-XL protein diluent was added to each well, then different compounds dissolved with DMSO were added to the wells with a nanoliter pipettor, allowing the final compound concentrations to be 2000 nM to 0.488 nM (4-fold gradient for 7 concentrations in total). Blank control wells (without enzyme) and negative control wells (with enzyme, plus vehicle DMSO) were set, and 2 replicate wells were set. Finally, 5 μL of Tag2-BAK protein diluent was added to each well, and the mixture was mixed well by centrifugation and incubated at 25° C. for 15 min. 100× anti-Tag1-Eu^3+ and 100× anti-Tag2-XL665 were both diluted to 1× working concentration with the detection buffer in the kit. Anti-Tag1-Eu^3+ and anti-Tag2-XL665 were mixed well in a 1:1 ratio, and the mixture was added to wells at 5 µL/well, and incubated at 25° C. for 2 h or more. The plate was read using a PE Envision multi-functional microplate reader (excitation: […], emission: 665 nm) and IC50 (shown in table 1) was calculated by four-parameter fitting.

T1 sequence (P10415 whole entry, species assumed): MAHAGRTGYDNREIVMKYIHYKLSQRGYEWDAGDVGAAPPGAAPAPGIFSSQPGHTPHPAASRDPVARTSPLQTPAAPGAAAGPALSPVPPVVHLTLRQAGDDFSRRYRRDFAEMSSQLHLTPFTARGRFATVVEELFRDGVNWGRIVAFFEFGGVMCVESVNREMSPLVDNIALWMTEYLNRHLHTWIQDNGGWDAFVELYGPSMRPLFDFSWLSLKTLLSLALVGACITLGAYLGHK
T2 sequence (Q07817 whole entry, species assumed): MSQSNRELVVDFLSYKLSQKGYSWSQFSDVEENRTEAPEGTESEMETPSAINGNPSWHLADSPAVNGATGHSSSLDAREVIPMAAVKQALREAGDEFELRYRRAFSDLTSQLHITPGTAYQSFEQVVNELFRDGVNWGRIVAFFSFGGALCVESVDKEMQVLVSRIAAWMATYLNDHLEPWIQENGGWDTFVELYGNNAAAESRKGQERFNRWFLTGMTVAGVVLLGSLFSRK

| IC50 (RS4;11 cells) | IC50 (BCL-2/BAK) | IC50 (BCL-XL/BAK) | Compound |
| --- | --- | --- | --- |
| 1.3 nM | 1.1 nM | – | CN(C)CC(=O)N1CCCC(CNc2ccc(S(=O)(=O)NC(=O)c3ccc(N4CCN(CC5=C(c6ccc(C(F)(F)F)cc6Cl)CC(C)(C)CC5)CC4)cc3Oc3cnc4[nH]ccc4c3)cc2[N+](=O)[O-])C1 (centres unmarked) [Compound 60-1] |
| – | 2.32 nM | 122 nM | COCC(=O)N1CCOC(CCNc2ccc(S(=O)(=O)NC(=O)c3ccc(N4CCN(CC5=C(c6ccc(C(F)(F)F)cc6Cl)CC(C)(C)CC5)CC4)cc3Oc3cnc4[nH]ccc4c3)cc2[N+](=O)[O-])C1 (centres unmarked) [Compound 72-1, 4-(4-{[2-(2-chloro-4-trifluoromethylphenyl)-4,4-dimethylcyclohex-1-enyl]methyl}-piperazin-1-yl)-N-({3-nitro-4-[(2-(4-(2-methoxyacetyl)morpholin-2-yl)ethyl)amino]phenyl}sulfonyl)-2-(1H-pyrrolo[2,3-b]pyridin-5-yloxy)-benzamide] |
| 1 nM | 1.1 nM | – | CN(C)CC(=O)N1CCC(CNc2ccc(S(=O)(=O)NC(=O)c3ccc(N4CCN(CC5=C(c6ccc(C(F)(F)F)cc6Cl)CC(C)(C)CC5)CC4)cc3Oc3cnc4[nH]ccc4c3)cc2[N+](=O)[O-])CC1 [Compound 59-1] |
| – | 0.86 nM | > 2000 nM | CC1(C)CCC(CN2CCN(c3ccc(C(=O)NS(=O)(=O)c4ccc(NCC5CCOCC5)c([N+](=O)[O-])c4)c(Oc4cnc5[nH]ccc5c4)c3)CC2)=C(c2ccc(Cl)cc2C(F)(F)F)C1 [Compound 3-1, 4-(4-{[2-(4-chloro-2-trifluoromethylphenyl)-4,4-dimethylcyclohex-1-enyl]methyl}-piperazin-1-yl)-N-({3-nitro-4-[(tetrahydro-2H-pyran-4-ylmethyl)amino]phenyl}sulfonyl)-2-(1H-pyrrolo[2,3-b]pyridin-5-yloxy)-benzamide] |
| – | 0.8 nM | > 2000 nM | CC1(C)CCC(CN2CCN(c3ccc(C(=O)NS(=O)(=O)c4ccc(NCC5CCOCC5)c([N+](=O)[O-])c4)c(Oc4cnc5[nH]ccc5c4)c3)CC2)=C(c2ccc(C(F)(F)F)c(Cl)c2)C1 [Compound 4-1, 4-(4-{[2-(3-chloro-4-trifluoromethylphenyl)-4,4-dimethylcyclohex-1-enyl]methyl}-piperazin-1-yl)-N-({3-nitro-4-[(tetrahydro-2H-pyran-4-ylmethyl)amino]phenyl}sulfonyl)-2-(1H-pyrrolo[2,3-b]pyridin-5-yloxy)-benzamide] |
| 1.1 nM | 1.9 nM | – | CC1(C)CCC(CN2CCN(c3ccc(C(=O)NS(=O)(=O)c4ccc(NCC5CN(C(=O)CC#N)CCO5)c([N+](=O)[O-])c4)c(Oc4cnc5[nH]ccc5c4)c3)CC2)=C(c2ccc(C(F)(F)F)cc2Cl)C1 (centres unmarked) [Compound 51-1, 4-(4-{[2-(2-chloro-4-trifluoromethylphenyl)-4,4-dimethylcyclohex-1-enyl]methyl}-piperazin-1-yl)-N-({3-nitro-4-[((4-(2-cyanoacetyl)morpholin-2-yl)methyl)amino]phenyl}sulfonyl)-2-(1H-pyrrolo[2,3-b]pyridin-5-yloxy)-benzamide] |
| 4.1 nM | 2.4 nM | – | CC1(C)CCC(CN2CCN(c3ccc(C(=O)NS(=O)(=O)c4ccc(NCCC5CN(S(C)(=O)=O)CCO5)c([N+](=O)[O-])c4)c(Oc4cnc5[nH]ccc5c4)c3)CC2)=C(c2ccc(C(F)(F)F)cc2Cl)C1 (centres unmarked) [Compound 21-1, 4-(4-{[2-(2-chloro-4-trifluoromethylphenyl)-4,4-dimethylcyclohex-1-enyl]methyl}-piperazin-1-yl)-N-({3-nitro-4-[(2-(4-(methylsulfonyl)morpholin-2-yl)ethyl)amino]phenyl}sulfonyl)-2-(1H-pyrrolo[2,3-b]pyridin-5-yloxy)-benzamide] |
| – | 2.18 nM | 243 nM | CC1(C)CCC(CN2CCN(c3ccc(C(=O)NS(=O)(=O)c4ccc(NCCC5CCCOC5)c([N+](=O)[O-])c4)c(Oc4cnc5[nH]ccc5c4)c3)CC2)=C(c2ccc(C(F)(F)F)cc2Cl)C1 (centres unmarked) [Compound 45-1, 4-(4-{[2-(2-chloro-4-trifluoromethylphenyl)-4,4-dimethylcyclohex-1-enyl]methyl}-piperazin-1-yl)-N-({3-nitro-4-[((2-tetrahydropyran-3-yl)ethyl)amino]phenyl}sulfonyl)-2-(1H-pyrrolo[2,3-b]pyridin-5-yloxy)-benzamide] |
| – | 5.11 nM | 556 nM | CCN1CCOCC1CNc1ccc(S(=O)(=O)NC(=O)c2ccc(N3CCN(CC4=C(c5ccc(C(F)(F)F)cc5Cl)CC(C)(C)CC4)CC3)cc2Oc2cnc3[nH]ccc3c2)cc1[N+](=O)[O-] (centres unmarked) [Compound 24-1, 4-(4-{[2-(2-chloro-4-trifluoromethylphenyl)-4,4-dimethylcyclohex-1-enyl]methyl}-piperazin-1-yl)-N-({3-nitro-4-[((4-ethylmorpholin-3-yl)methyl)amino]phenyl}sulfonyl)-2-(1H-pyrrolo[2,3-b]pyridin-5-yloxy)-benzamide] |
| – | 1.78 nM | 157 nM | CC1(C)CCC(CN2CCN(c3ccc(C(=O)NS(=O)(=O)c4ccc(NC[C@@H]5CCOC5)c([N+](=O)[O-])c4)c(Oc4cnc5[nH]ccc5c4)c3)CC2)=C(c2ccc(C(F)(F)F)cc2Cl)C1 [Compound 36-1, (S)-4-(4-{[2-(2-chloro-4-trifluoromethylphenyl)-4,4-dimethylcyclohex-1-enyl]methyl}-piperazin-1-yl)-N-({3-nitro-4-[((tetrahydrofuran-3-yl)methyl)amino]phenyl}sulfonyl)-2-(1H-pyrrolo[2,3-b]pyridin-5-yloxy)-benzamide] |
| 3.2 nM | 1.52 nM | – | CC(=O)N1CCO[C@@H](CNc2ccc(S(=O)(=O)NC(=O)c3ccc(N4CCN(CC5=C(c6ccc(C(F)(F)F)cc6Cl)CC(C)(C)CC5)CC4)cc3Oc3cnc4[nH]ccc4c3)cc2[N+](=O)[O-])C1 [Compound 61-1, (S)-4-(4-{[2-(2-chloro-4-trifluoromethylphenyl)-4,4-dimethylcyclohex-1-enyl]methyl}-piperazin-1-yl)-N-({3-nitro-4-[((4-acetylmorpholin-2-yl)methyl)amino]phenyl}sulfonyl)-2-(1H-pyrrolo[2,3-b]pyridin-5-yloxy)-benzamide] |
| – | 1.59 nM | 142 nM | CC1(C)CCC(CN2CCN(c3ccc(C(=O)NS(=O)(=O)c4ccc(NC[C@@H]5CCCO5)c([N+](=O)[O-])c4)c(Oc4cnc5[nH]ccc5c4)c3)CC2)=C(c2ccc(C(F)(F)F)cc2Cl)C1 [Compound 37-1, (S)-4-(4-{[2-(2-chloro-4-trifluoromethylphenyl)-4,4-dimethylcyclohex-1-enyl]methyl}-piperazin-1-yl)-N-({3-nitro-4-[((tetrahydrofuran-2-yl)methyl)amino]phenyl}sulfonyl)-2-(1H-pyrrolo[2,3-b]pyridin-5-yloxy)-benzamide] |

| Compound | IC50 (RS4;11 cells) | IC50 (BCL-2/BAK) | IC50 (BCL-XL/BAK) |
| --- | --- | --- | --- |
| 4-(4-{[2-(2-chloro-4-trifluoromethylphenyl)-4,4-dimethylcyclohex-1-enyl]methyl}-piperazin-1-yl)-N-({3-nitro-4-[(4-((trifluoromethyl) sulfonyl)morpholin-2-yl)methyl)amino]phenyl}sulfonyl)-2-(1H-pyrrolo[2,3-b]pyridin-5-yloxy)-benzamide [Compound 56-1] | – | 3.55 nM | 381 nM |
